In patent US7919458B2, “Method of inhibiting prostate cancer cell proliferation” (Scott, Kieran, Francis, priority 2002, dated 2011):
Non-standard residues stand in square brackets, D forms with d. 2Nal = N[C@@H](Cc1ccc2ccccc2c1)C(=O)O

How the values were obtained:
[1] = system: LNCaP; assay: MTS cell growth assay, unstimulated LNCaP cells; assay type: cell-based, human; settings: 72 hours; for Proliferation of unstimulated LNCaP cells: 1-100 nM, endogenous sPLA2-IIA; for Smallest effective dose, LNCaP proliferation: doses 1-100 nM
Protocol: (§1) FIG. 4. Effect of sPLA2-IIA inhibition on unstimulated prostate cancer cells. (A) The endogenous expression of sPLA2-IIA mRNA was evaluated by RT-PCR in three unstimulated prostate cancer cell lines (LNCaP, DU145 and PC-3) grown in RPMI containing 5% FCS. HPRT was used to as a positive control for RNA integrity and loading. (B) Cells were grown in RPMI with 5% FCS were then treated for 72 hours in the presence and absence of the sPLA2-IIA inhibitor c(2Nap)LS(2Nap)R and cell number determined by MTS assay as described in Materials and Methods. Data are mean±SD of quadruplicate determinations expressed as percentages relative to untreated control cells (100%). LNCaP, closed bars, OD495 untreated cells 0.50±0.03; DU145, open bars, OD495 untreated cells 0.73±0.05; PC-3, hatched bars, OD495 untreated cells, 0.66±0.01. *p<0.05 vs untreated control by one-way ANOVA.
(§2) Cell Lines and Culture. The LNCaP, DU145 and PC3 cell lines were purchased from American Type Culture Collection (Rockville, Md.). All cell cultures were maintained in RPMI 1640 supplemented with 5% FBS for LNCaP and 10% FBS for DU145 and PC3 at 37° C. in a humidified environment of 5% CO2. For experiments with addition of androgens, cells were cultured in RPMI 1640 without phenol red and supplemented with same concentration of charcoal stripped FBS. For experiments described in this article, we used cells between passage 30 and 45 for LNCaP, 65 and 80 for DU145 and 25 and 40 for PC3.
(§3) Cell growth assay. Cells were plated at 1×10^4 per well in 96-well plates with 0.1 ml of FBS-supplemented RPMI. After reaching 70-80% confluence (about 48 hours), the medium was changed to that containing various treatments for 3 days. After treatment, the number of viable cells was determined using the MTS assay (CellTiter 96® AQueous Assay; Promega, Madison, Wis.). In brief, 20 ul of MTS solution was added to each well and cells were incubated for 1 h. The absorbance at 490 nm was measured with an ELISA microplate reader. Each experiment was performed in quadruplicate and repeated at least three times.
(§4) To test the effect of blocking endogenous sPLA2-IIA on cell growth, we firstly determined the basal mRNA levels of sPLA2-IIA in 3 human prostate cancer cell lines. The androgen-independent cell lines PC-3 and DU145 cells were included in the study to also exclude a possible general toxicity of the inhibitors. mRNA encoding sPLA2-IIA was undetectable in DU-145 compared with LNCaP and PC-3 cells (FIG. 4A). We then tested the effect of individual inhibitors cFLSYR (SEQ ID NO: 6) and c(2Nap)LS(2Nap) R on cell growth over a range of doses (1-100 nM). […] The low but effective dosage and its specificity for cell lines containing endogenous sPLA2-IIA only, indicate that non-specific cell toxicity is not likely to explain the inhibitory effect.

[2] = target: T1, human sPLA2-IIA (Homo sapiens, UniProt P14555); settings: previously published work (Tseng et al. 1996; Church et al. 2001); cited from earlier work
T1 sequence (P14555 21-144): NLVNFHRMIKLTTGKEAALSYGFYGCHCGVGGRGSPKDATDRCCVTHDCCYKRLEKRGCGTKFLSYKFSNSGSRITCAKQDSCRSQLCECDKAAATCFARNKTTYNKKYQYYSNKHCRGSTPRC

[3] = system: PC-3; assay: MTS cell growth assay, unstimulated PC-3 cells; assay type: cell-based, human; settings: 72 hours; for Proliferation of unstimulated PC-3 cells: 1-100 nM, endogenous sPLA2-IIA; for Smallest effective dose, PC-3 proliferation: doses 1-100 nM
Protocol: as §1, §2, §3, §4

[4] = system: DU145; assay: MTS cell growth assay, unstimulated DU145 cells; assay type: cell-based, human; settings: 1-100 nM, 72 hours, sPLA2-IIA mRNA undetectable
Protocol: as §1
Cell Lines and Culture. The LNCaP, DU145 and PC3 cell lines were purchased from American Type Culture Collection (Rockville, Md.). […]
(§5) Cell growth assay. […] After treatment, the number of viable cells was determined using the MTS assay (CellTiter 96® AQueous Assay; Promega, Madison, Wis.). […] The absorbance at 490 nm was measured with an ELISA microplate reader. […]
To test the effect of blocking endogenous sPLA2-IIA on cell growth, we firstly determined the basal mRNA levels of sPLA2-IIA in 3 human prostate cancer cell lines. […]

[5] = system: LNCaP cells; assay: MTS cell growth assay, inhibition of sPLA2-IIA-stimulated LNCaP proliferation; assay type: cell-based, human; settings: fixed sPLA2-IIA (1 nM), 72 hours, increasing inhibitor concentrations
Protocol: (§6) FIG. 2. Effect of exogenous addition of sPLA2-IIA on prostate cell growth. LNCaP cells were grown in RPMI with 5% FCS and treated for 72 hours in media containing (A) increasing concentrations of sPLA2-IIA alone (closed bars) or increasing concentrations of the activity-dead sPLA2-IIA mutant H48Q. (B) a fixed concentration of sPLA2-IIA and increasing concentrations of the sPLA2-IIA inhibitor cFLSYR (SEQ ID NO: 6). Cell number relative to untreated control cells was determined by the MTS assay as described in Materials and Methods. Data are Mean±SD of quadruplicate determinations normalised to 100% for untreated cells. OD495 of unstimulated cells was 0.29±0.06 for sPLA2-IIA and 0.24±0.03 for the sPLA2-IIA mutant experiments in panel A and 0.24±0.03 for panel B. *p<0.05 vs untreated control by one-way ANOVA. Data are representative of three separate experiments. (C). […]
FIG. 3. […] Cell number was determined by the MTS assay as described in Materials and Methods. Data are mean±SD of quadruplicate determinations expressed as percentages relative to untreated control cells (100%) (open bar). […]
as §5

[6] = system: LNCaP cells; assay: Flow cytometric cell cycle analysis (propidium iodide) of LNCaP cells; assay type: cell-based, human
Protocol: FIG. 2. Effect of exogenous addition of sPLA2-IIA on prostate cell growth. LNCaP cells were grown in RPMI with 5% FCS and treated for 72 hours in media containing (A) increasing concentrations of sPLA2-IIA alone (closed bars) or increasing concentrations of the activity-dead sPLA2-IIA mutant H48Q. (B) a fixed concentration of sPLA2-IIA and increasing concentrations of the sPLA2-IIA inhibitor cFLSYR (SEQ ID NO: 6). Cell number relative to untreated control cells was determined by the MTS assay as described in Materials and Methods. Data are Mean±SD of quadruplicate determinations normalised to 100% for untreated cells. OD495 of unstimulated cells was 0.29±0.06 for sPLA2-IIA and 0.24±0.03 for the sPLA2-IIA mutant experiments in panel A and 0.24±0.03 for panel B. *p<0.05 vs untreated control by one-way ANOVA. Data are representative of three separate experiments. (C). LNCaP cells were grown as above and stimulated for 72 hours with sPLA2-IIA (1 nM) in the absence (dotted lines) and presence (solid lines) of the sPLA2-IIA inhibitor cFLSYR (SEQ ID NO: 6) (100 nM). Cells (1×10^6) were assayed by flow cytometry following treatment with propidium iodide as described in Materials and Methods. Statistical analysis was performed on 10,000 events per sample. Data are representative of three separate experiments.
Flow Cytometric Analysis. Cells were seeded in 25 ml flasks in conditions as described above. Following treatment, trypsinization and cell counting, LNCaP cells (1×10^6) were suspended in 1 mL PBS and incubated with 0.2 mL 0.4% Triton® X-100 for 5 min at R/T in the presence of 50 μL of propidium iodide solution (50 μg/mL) and 20 μL of ribonuclease (10 mg/mL). DNA content per cell was measured by flow cytometry using an FACScalibur® flow cytometer and CellQuest® software (Becton Dickinson, Franklin Lakes, N.J.). Statistical analysis was performed on 10,000 events per sample.
We next used flow cytometric analysis to determine how sPLA2-IIA affects the distribution of LNCaP cells in different phases of the cell cycle. […]

[7] = system: LNCaP cells; assay: MTS cell growth assay, exogenous sPLA2-IIA added to LNCaP cells; assay type: cell-based, human; settings: 72 hours
Protocol: as §6, §5
To examine the biological relevance of sPLA2-IIA to prostate cancer cell growth, we treated LNCaP cells with increasing doses of human recombinant sPLA2-IIA and monitored cell growth. […]

c(2NapA)LS(2NapA)R: cyclic peptide where F and Y are substituted with 2-naphthylalanine; sPLA2-IIA inhibitor (cyclo([2Nal]LS[2Nal]R); SMILES CC(C)C[C@@H]1NC(=O)[C@H](Cc2ccc3ccccc3c2)NC(=O)[C@H](CCCNC(=N)N)NC(=O)[C@H](Cc2ccc3ccccc3c2)NC(=O)[C@H](CO)NC1=O)
Proliferation of unstimulated LNCaP cells [1]: significantly decreased | Smallest effective dose, LNCaP proliferation [1]: 1 nM | Inhibition of human sPLA2-IIA in in vitro activity assays [2]: significant improvement in potency over linear peptides | Proliferation of unstimulated PC-3 cells [3]: significantly decreased | Smallest effective dose, PC-3 proliferation [3]: 1 nM | Effect on unstimulated DU145 cell growth [4]: neither of the inhibitors had an effect

cFLSYR: cyclic peptide FLSYR, sPLA2-IIA inhibitor derived from residues 70-74 of human sPLA2-IIA (cyclic)
Effect on sPLA2-IIA-stimulated LNCaP cell number/growth [5]: completely blocked | Proportion of cells in G1 and G2 phase with sPLA2-IIA plus inhibitor ([6]; sPLA2-IIA 1 nM plus cFLSYR 100 nM, 72 hours): returned to basal levels | Proliferation of unstimulated LNCaP cells [1]: significantly decreased | Smallest effective dose, LNCaP proliferation [1]: 1 nM | Inhibition of human sPLA2-IIA in in vitro activity assays [2]: significant improvement in potency over linear peptides | Proliferation of unstimulated PC-3 cells [3]: significantly decreased | Smallest effective dose, PC-3 proliferation [3]: 1 nM | Effect on unstimulated DU145 cell growth [4]: neither of the inhibitors had an effect

B1: sPLA2-IIA: human recombinant sPLA2-IIA purified from Chinese hamster ovary cell conditioned media (protein, listed as Homo sapiens)
chain: MKTLLLLAVIMIFGLLQAHGNLVNFHRMIKLTTGKEAALSYGFYGCHCGVGGRGSPKDATDRCCVTHDCCYKRLEKRGCGTKFLSYKFSNSGSRITCAKQDSCRSQLCECDKAAATCFARNKTTYNKKYQYYSNKHCRGSTPRC
Proportion of LNCaP cells in G1 phase ([6]; sPLA2-IIA containing medium (1 nM), 72 hours, untreated 74%): 62% | Proportion of LNCaP cells in G2/M phase ([6]; sPLA2-IIA containing medium, in comparison to untreated cells): increase | Lowest dose stimulating LNCaP cell growth ([7]; MTS assay): 1 nM | Effect of exogenously added protein on LNCaP cell growth (MTS) ([7]; RPMI with 5% FCS, relative to untreated cells): dose-dependently stimulated LNCaP cell growth
